Assays:
TMD-8 cells = test: Anti-proliferation Assay (MTS), TMD-8 cells; format: cell-based; conditions: Homo sapiens, TMD8, treated for 72 hours, MTS cell survival
Procedure: (§1) Cell survival is determined by a MTS assay. Briefly, cells (i.e., TMD-8 cells or Rec-1 cells) are plated in a 96-well plate, cultured in complete growth medium, and then treated with various drugs and drug combinations. MTS/PMS is added and incubated, followed by assessment of cell viability using the microplate reader. Data is normalized to untreated controls and analyzed with Microsoft Excel.
(§2) Cell survival was determined by the MTS assay. Briefly, cells (i.e., TMD-8 cells or Rec-1 cells) were plated in a 96-well plate at 2,000-10,000 cells per well, cultured for 24 hours in complete growth medium, and then treated with various drugs and drug combinations for 72 hours. MTS/PMS was added and incubated for 4 hour, followed by assessment of cell viability using the microplate reader (absorbance at 490 nm). Data were normalized to untreated controls and analyzed with Microsoft Excel.

Rec-1 cells = test: Anti-proliferation Assay (MTS), Rec-1 cells; format: cell-based; conditions: Homo sapiens, Rec1, treated for 72 hours, MTS cell survival
Procedure: as §1, §2

**Q.** What does the source list for `O=C(c1ccc(Oc2ccccc2)cc1Cl)c1c[nH]c2ncnc(N[C@@H]3CC[C@@H](CO)OC3)c12` [Compound (I), (2-chloro-4-phenoxyphenyl)(4-(((3R,6S)-6-(hydroxymethyl)tetrahydro-2H-pyran-3-yl)amino)-7H-pyrrolo[2,3-d]pyrimidin-5-yl)methanone]?
**A.** IC50 (TMD-8 cells): 130 ± 60 nM; IC50 (Rec-1 cells): 180 ± 70 nM

Source: patent publication EP3882250B1, “TETRAHYDROPYRANYL AMINO-PYRROLOPYRIMIDINONE FOR USE IN TREATING BTK-MEDIATED DISORDERS” (ArQule, Inc., priority 2015, dated 2017)
